US10782295B2, “Cysteine-reactive ligand discovery in proteomes” (THE SCRIPPS RESEARCH INSTITUTE, priority 2013, dated 2020)

Columns and labels:
[1] = biological target: ZAK (Homo sapiens, UniProt Q9NYL2); assay: SILAC-ABPP with acylphosphate-ATP probe; format: binding; parameters: Full-length cDNA encoding human ZAK-13 (BC001401); expressed in transfected cells; details: 100 μM, 30 min; ZAK-transfected HEK293T proteome
From the text: The gel signals for IA-labeling of WT-ZAK were blocked by pretreatment with HNE over a concentration range that closely matched the HNE-sensitivity profile observed for C22 in competitive isoTOP-ABPP experiments (FIG. 4b, compare to FIG. 3a). […] Considering further that C22 is predicted to reside adjacent to the ATP-binding loop of ZAK, we postulated that the HNE-induced loss of kinase activity might be due to blockade of ATP-binding.
HEK-293T cells with stable expression of wild-type ZAK were passaged six times in DMEM medium minus 1-lysine and 1-arginine (Thermo) supplemented 10% dialyzed FBS (Gemini), 1% PSQ (1% vol/vol 10,000 units penicillin, 10 mg streptomycin, 29.2 mg lglutamate solution) and 100 μg/mL [^13C6, ^15N4] 1-arginineHCl and [^13C6,^15N2] 1-lysineHCl (heavy) or 1-arginineHCl and 1-lysineHCl (light) (Sigma-Aldrich). […] The trypsin digested samples were analysed by LC-MS/MS and enriched kinase peptides were identified by SEQUEST and DTASelect. The amounts of probe-labeled kinases with and without HNE treatment were quantified using the CIMAGE module that was developed for quantitative SILAC-ABPP chemoproteomic profiling. As internal controls, light and heavy proteomes were trypsin digested without probe labeling and streptavidin enrichment, and analysed by LC-MS/MS to quantify the basic level of each kinase between light and heavy samples. […]

[2] = system: JNK pathway activation; assay: Western blotting of phospho-JNK in WT-ZAK-transfected HEK-293T cells; format: cell-based, human
Procedure: (§1) We next set out to assess the functional effects of HNE modification of ZAK in human cells. HEK-293T cells were stably transfected with cDNAs for WT-ZAK, C22A-ZAK, or K45M-ZAK and the activation state of their MAPK signaling pathways was monitored by western blotting with anti-phosphoprotein antibodies. […] We next treated cells with H2O2 (1 mM, 30 min) to induce oxidative stress, a process that is known to activate the JNK pathway^41,42. H2O2 treatment stimulated JNK activity in both WT- and C22A-ZAK-transfected cells (but not K45M-ZAK-transfected cells), with WT-ZAK cells showing the greater level of activation (FIG. 5b,c). […] We interpret these findings to indicate the existence of both ZAK-dependent and ZAK-independent pathways for HNE modulation of JNK activation (FIG. 5d). By modifying C22 on ZAK, HNE blocks the contribution that this kinase makes to the activation of the JNK pathway. […]
(§2) Mouse and rabbit monoclonal antibodies against phospho-ERK 1/2 (Thr202/Tyr204), phosphor-SAPK/JNK (Thr183/[…]), phosphor-p38 MAPK (Thr180/[…]) and total ERK 1/2, SAPK/JNK and p38 MAPK were purchased from Cell Signaling Technology. […] Protein band intensities were quantified by ImageJ8 and ratios of phosphor-MAPK over total MAPK were computed. […]

[3] = system: JNK pathway activation; assay: Western blotting of phospho-JNK in C22A-ZAK-transfected HEK-293T cells; format: cell-based, human
Procedure: as §1, §2

[4] = pre-treatment 100 μM, 30 min, then H2O2 1 mM, 30 min

ZAK, sequence (Q9NYL2 1-455 isoform Q9NYL2-2): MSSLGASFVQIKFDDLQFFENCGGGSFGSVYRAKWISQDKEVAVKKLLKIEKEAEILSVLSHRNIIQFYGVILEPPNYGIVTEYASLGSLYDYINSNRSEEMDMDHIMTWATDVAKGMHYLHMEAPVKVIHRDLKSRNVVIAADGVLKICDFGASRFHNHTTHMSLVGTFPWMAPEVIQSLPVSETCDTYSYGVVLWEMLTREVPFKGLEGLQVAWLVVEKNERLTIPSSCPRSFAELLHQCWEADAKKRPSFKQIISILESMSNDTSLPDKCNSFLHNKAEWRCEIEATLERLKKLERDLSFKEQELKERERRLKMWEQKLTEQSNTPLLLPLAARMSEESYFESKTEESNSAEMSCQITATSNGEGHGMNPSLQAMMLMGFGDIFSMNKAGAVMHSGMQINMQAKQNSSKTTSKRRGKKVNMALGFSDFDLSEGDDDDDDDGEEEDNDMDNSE

**Q.** Which results are given for CCCCCC(O)/C=C/C=O (centres unmarked) [4-HNE, 4-Hydroxynonenal]?
**A.** acylphosphate-ATP probe-labeling of ZAK [1]: profoundly reduced; JNK activation by HNE alone, WT-ZAK-transfected cells ([2]; 50 or 100 μM, 60 min): mostly unaffected; H2O2-dependent JNK activation, WT-ZAK cells [2, 4]: blocking H2O2-dependent JNK activation; JNK activation by HNE alone, C22A-ZAK-transfected cells ([3]; 50 or 100 μM, 60 min): dramatic concentration-dependent activation of JNK; H2O2-dependent JNK activation, C22A-ZAK cells [3, 4]: hyper-activating JNK activity
